The test system of series [1] is P. falciparum D6 (Chloroquine Sensitive). Nature of the series: Malaria model, chloroquine sensitive P. falciparum. The class given is cell-based. The note with it: Plasmodium falciparum, D6; read-out: IC50 (nM) vs P. falciparum D6 (Chloroquine Sensitive). As to the method:
The compounds were tested in a malaria model using both chloroquine sensitive and multidrug resistant P. falciparum. The malaria model was the same as published in JAC Advance Access published online on Jul. 30, 2008, Journal of Antimicrobial Chemotherapy, doi:10.1093/jac/dkn315, the contents of which are hereby incorporated by reference, and the data is summarized in the table below.
Briefly, the assay involves exposing both chloroquine sensitive and multidrug resistant P. falciparum to the compounds. After one hour of exposure to the highest concentration of the compound, followed by removal of the compound, the growth of all stages of P. falciparum was observed. The reduction in the growth stages was then compared with untreated control parasites. […] The presence of strong inhibition (defined herein as 10% growth) of all parasite stages was evaluated when the parasites were exposed to various concentrations of various compounds.

For another series, the system named is bEnd.3 hemangiomas. As to the kind of experiment: bEnd.3 hemangioma in vivo, intralesional treatment. As to the method: In order to determine if compounds that inhibit ang-2 formation in vitro would ameliorate hemangioma formation in vivo, we injected one million bEnd.3 cells subcutaneously into nine nude mice.
For each treatment condition, three mice were injected with 1,000,000 bEnd.3 cells and received intralesional injection with either vehicle control, brilliant green or gentian viol et (from left to right in photo) on days 9 and 14. Animals were euthanized on day 20, secondary to tumor burden in the control animals.
For each treatment condition, three mice were subcutaneously injected with one million bEnd.3 cells and monitored for tumor development. On day 9, tumors were measured in all nine animals, and there was no significant difference in tumor volume before the initiation of treatment. Each mouse then received intralesional injection with either 0.33 ml vehicle control, brilliant green (5 mg/kg, dissolved in […] ethanol and 900 μl intralipid) or gentian violet (5 mg/kg, dissolved in 100 μl ethanol and 900 μl intralipid) on days 9 and 14. No toxicity was noted following injection. Animals were euthanized on day 20, secondary to tumor burden in the control animals. Photos represent average tumor burden in each of the three groups (FIG. 3a), and tumor volume (mm^3) is graphically depicted (FIG. 3b). Error bars represent the standard error of the mean.

In another series the target is T1, Nox2 (Homo sapiens, UniProt P04839).
T1 construct: expressed in transfected cells; host or cells: COS-phox cells
T1 sequence (P04839 2-570 limits assumed): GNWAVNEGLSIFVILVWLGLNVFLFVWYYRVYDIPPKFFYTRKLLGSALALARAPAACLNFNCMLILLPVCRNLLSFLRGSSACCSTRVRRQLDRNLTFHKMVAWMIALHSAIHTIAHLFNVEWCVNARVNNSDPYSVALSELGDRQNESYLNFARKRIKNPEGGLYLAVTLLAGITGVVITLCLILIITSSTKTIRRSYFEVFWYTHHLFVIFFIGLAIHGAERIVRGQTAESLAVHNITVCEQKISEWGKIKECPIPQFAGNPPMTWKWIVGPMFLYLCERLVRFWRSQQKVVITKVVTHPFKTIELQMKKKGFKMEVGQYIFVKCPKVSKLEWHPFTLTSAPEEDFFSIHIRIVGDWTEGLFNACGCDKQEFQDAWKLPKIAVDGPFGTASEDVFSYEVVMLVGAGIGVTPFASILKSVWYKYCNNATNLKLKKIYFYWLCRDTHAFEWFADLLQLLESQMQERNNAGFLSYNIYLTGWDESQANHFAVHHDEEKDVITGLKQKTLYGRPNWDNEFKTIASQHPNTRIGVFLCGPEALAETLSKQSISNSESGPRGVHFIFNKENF
T1 sequence (P13498 2-195 partner limits assumed): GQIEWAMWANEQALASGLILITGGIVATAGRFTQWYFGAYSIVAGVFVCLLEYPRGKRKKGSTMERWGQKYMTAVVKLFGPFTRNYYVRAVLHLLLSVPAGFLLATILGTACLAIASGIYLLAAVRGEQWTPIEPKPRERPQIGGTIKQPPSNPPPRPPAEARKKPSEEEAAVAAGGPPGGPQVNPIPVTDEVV
As to the kind of experiment: H2O2 production, homovanillic acid assay, Cos-phox cells. Conditions: phorbol 12-myristate 13-acetate stimulated, 1 hour 37° C. It is filed as cell-based. As to the method:
After 1 hour incubation at 37° C., the reaction was stopped and H2O2 production was measured using the homovanillic acid assay. The ability of these drugs to inhibit production of H2O2 is shown as a percentage relative to the untreated control (100%). […] Optimal Nox2 activity requires phorbol 12-myristate 13-acetate stimulation whereas Nox4 activity is constitutive.
H2O2 release was measured using the homovanillic acid assay as described previously (Martyn, 2006). Briefly, 1.5-1.75×10^5 cells/well of a 12-well plate were seeded. The following day, cells were washed once with Hank's balanced salt solution and then preincubated for 15 minutes with either gentian violet (10-20 nM) or brilliant green (0.5-1.0 μM) in 1 ml of media. The cells were then washed once with Hank's balanced salt solution. Gentian violet or brilliant green was added at the same concentrations as in pretreatment to 0.5 ml of homovanillic acid assay solution (100 μM homovanillic acid assay, 4 U/ml horseradish peroxidase in Hank's balanced salt solution with Ca^2+ and Mg^2+) and incubated with the cells for 1 hour at 37° C. Cos-phox cells were additionally stimulated with 0.4 μg/ml phorbol 12-myristate 13-acetate. […] Fluorescence was read on a BioTek Synergy HT (BioTek Instruments Inc., Winooski, Vermont, […].) with an excitation of 320 nm and emission of 440 nm.

SMILES strings stand for the structures.

The values that follow come from patent US9358226B2, “Triarylmethane analogs and their use in treating cancers” (Emory University, priority 2007, dated 2016).

As for `CN(C)c1ccc(C(=C2C=CC(=[N+](C)C)C=C2)c2ccc(N(C)C)cc2)cc1` [Gentian Violet (GV), hexamethyl pararosaniline chloride], the half-maximal inhibitory concentration (IC50) in series [1] was determined as 12.1 nM. Further, the “decrease in tumor size compared to control” value with bEnd.3 hemangiomas (5 mg/kg intralesional on days 9 and 14, euthanized day 20) is on record as 92.6%. In the series with bEnd.3 hemangiomas (mouse, in vivo, 5 mg/kg), the “toxicity as a result of treatment” value is “Neither local nor systemic toxicity was observed”. Besides, on Nox2, the “inhibition of Nox2 activity (H2O2 production)” value is on record as “inhibited”.
